Laboratory results published in patent US20110245095A1, “FAST ASSIGNMENT OF ADEQUATE CHEMOTHERAPY WITH LATINUM BASED DRUGS FOR CANCER PATIENTS BASED ON THE IDENTIFICATION OF CONSTITUTIONAL BRCAL MUTATIONS” (priority 2008, published 2011).

Experiments:
Type in all cases: in vivo, human
[1] = test system: disseminated ovarian cancer, BRCA1 mutation carriers; experiment: Cisplatin chemotherapy of BRCA1 mutation carriers with disseminated ovarian cancer (Example 2, retrospective); conditions: 4 patients
Description: The patients selected for this study were retrospectively screened from the database of the oncology department at the Pomeranian Academy of Medicine, Szczecin (Poland). […] All cases were documented for the presence of a BRCA1 constitutional mutation among the dominating founder mutations in Poland (C610, 4153delA and 5382insC) determined by the same techniques described in Example 1. The tumor size had to be measurable per RECIST: X-Ray or physical examination ≧20 mm, and/or spiral CT scan≧10 mm, and/or conventional CT scan≧20 mm. Only individuals were chosen with a life expectancy a priori of at least 3 months, to exclude a technical blur due to extreme disease progression in terminal cancer cases. The maximal ECOG performance status admitted was less than or equal to 2. […]

[2] = test system: invasive breast cancer, pathogenic BRCA1 mutation carriers; experiment: Neoadjuvant cisplatin therapy in breast cancer patients carrying a constitutional BRCA1 mutation (Example 1)
Method: Eight patients were treated in Szczecin (Poland) and two were treated in Bielsko-Biala (Poland). In these centers, genetic testing is offered to all women with incident breast cancer.
For the purpose of this study, genetic testing was expedited; in most cases the test result was available within five days of diagnosis. Written informed consent was obtained from each patient. The protocol was approved by the Research Ethics Review Board of the Pomeranian Medical Academy.
Patients with a previous diagnosis of breast cancer, or other cancer, were excluded (three patients). Patients who received prior chemotherapy were excluded (three patients). Patients with metastatic disease (stage 1V) at presentation were excluded (one patient). One patient presented with primary breast cancer after a previous prophylactic bilateral mastectomy and was excluded.
Patients were evaluated for renal function, liver function, and hematology prior to therapy.
Prior to platinum chemotherapy, the clinical and histological features of the breast cancers were assessed. Tumor size was evaluated by clinical examination and by ultrasound, in some cases supplemented by mammogram. Histology was evaluated in nine cases by core biopsy and in one case by fine needle aspiration. For the nine cases who underwent core biopsy, grade, ER, PR, and ERBB2 status were evaluated by immuno-histochemistry. […] Grade was evaluated in the core biopsy specimen using the Bloom-Richardson classification system,
Each cycle was 21 days. Granulocyte colony-stimulating factor (G-CSF) was not given to any patient. Dexamethasone (8 mg) was administered once daily for three days after chemotherapy, Ondansetron (Zophran™; GlaxoWellcome) was used for anti-nausea prophylaxis. Toxicity (nausea, vomiting, neutropenia) was assessed using the National Cancer Institute Common Toxicity Criteria after each cycle.
Surgery was followed by post-operative chemotherapy (four cycles of Adriamycin and Cyclophosphamide). Two patients received radiotherapy.
Clinical response was considered complete if there was no evidence of the primary breast tumor according to the World Health Organization (WHO) criteria (total disappearance of the tumor in breast and lymph nodes). Clinical response was considered ‘partial’ if there was a reduction of ≧50% in the product of the two largest perpendicular diameters of the tumor. […] The primary endpoint of this study was pathologic complete response. Pathologic response was considered complete if there was no evidence of invasive breast tumor and the lymph nodes were negative. Pathology specimens were reviewed by two pathologists. If there was evidence of breast carcinoma in situ, but no evidence of invasive disease, this was still considered to be a pathologic complete response.

[3] = test system: cancer of the pancreas, BRCA1 mutation carriers; experiment: Cisplatin chemotherapy of BRCA1 mutation carriers with pancreatic cancer (Example 3, retrospective); conditions: 1 patient
Description: (§1) The database of the oncology department at the Pomeranian Academy of Medicine, Szczecin (Poland), was retrospectively screened for patients affected by cancer types different than the breast or ovary (histologically or cytologically proven) since those cancer types had already been analyzed in Examples 1 and 2. Those patients had to be carriers of at least one constitutional mutation of the gene BRCA1, among the dominating founder mutations in Poland (CMG, 4153delA and 5382insC). The presence of a mutation was determined by the same techniques described in Example 1.
(§2) The group that qualified matching all criteria consisted of five patients affected by cancer of the colon (1 subject), the pancreas (1 subject), the gallbladder (1 subject) and the lung (2 subjects). In 60% of the cases (both lung cancer patients and the colon cancer patient) a complete remission was reported after the application of the chemotherapy. […] In none of the cases, there was a lack of response towards cisplatin.

[4] = test system: disseminated breast and ovarian cancer, BRCA1 mutation carriers; experiment: Cisplatin chemotherapy, disseminated breast and ovarian cancer analysed together (Example 2)
Description: The patients selected for this study were retrospectively screened from the database of the oncology department at the Pomeranian Academy of Medicine, Szczecin (Poland). […] All cases were documented for the presence of a BRCA1 constitutional mutation among the dominating founder mutations in Poland (C610, 4153delA and 5382insC) determined by the same techniques described in Example 1. The tumor size had to be measurable per RECIST: X-Ray or physical examination ≧20 mm, and/or spiral CT scan≧10 mm, and/or conventional CT scan≧20 mm. Only individuals were chosen with a life expectancy a priori of at least 3 months, to exclude a technical blur due to extreme disease progression in terminal cancer cases. The maximal ECOG performance status admitted was less than or equal to 2. The definition of minimum adequacy of organ function required prior to study entry were as follows: Absolute neutrophil count (ANC)>1,500/mcl, Platelets>100,000/mcl, Haemoglobin >8 g/dl, Total Bilirubin <1.5×ULN, AST (SGOT)/ALT (SGPT)<2.5×ULN and Creatinine within the normal institutional limits. All patients signed their willingness and ability to comply with scheduled visits, treatment plans, laboratory tests, and other study procedures. A total of 15 patients matched the selection criteria with ages at diagnosis ranging from 32 to 70 years and mean age at diagnosis of 48 years.
Ovarian cancer patients were selected following the same selection criteria. Four individuals matched the criteria with ages at diagnosis ranging from 42 to 45 years and mean age at diagnosis of 43.5 years.
The response assessment was based on a complete tumor measurement form (the form is carried forward continuously from cycle to cycle). Possible responses were complete response, partial response, stable disease and progressive disease, according to international oncology standards.

[5] = test system: cancer of the gallbladder, BRCA1 mutation carriers; experiment: Cisplatin chemotherapy of BRCA1 mutation carriers with gallbladder cancer (Example 3, retrospective); conditions: 1 patient
Description: as §1, §2

[6] = test system: cancer of colon, lung, pancreas, gallbladder, BRCA1 mutation carriers; experiment: Cisplatin chemotherapy of BRCA1 mutation carriers with cancer at sites other than breast and ovaries, total (Example 3); conditions: 5 patients
Description: as §1, §2

[7] = test system: cancer of the lung, BRCA1 mutation carriers; experiment: Cisplatin chemotherapy of BRCA1 mutation carriers with lung cancer (Example 3, retrospective); conditions: 2 patients
Description: as §1, §2

[8] = test system: cancer of the colon, BRCA1 mutation carriers; experiment: Cisplatin chemotherapy of BRCA1 mutation carriers with colon cancer (Example 3, retrospective); conditions: 1 patient
Description: as §1, §2

[9] = N = 10, after mastectomy and lymph node dissection
[10] = neoadjuvant cisplatin 75 mg/m^2 every three weeks, N = 10

## N.N.[Cl][Pt][Cl] [cisplatin, cis-diamminedichloridoplatinum(II)]
[1]
  No response, number of patients: 0
  Response: PR (partial response), number of patients: 0
[2]; N = 10
  Clinical Response: No Change, %: 0%
  Clinical Response: No Change, No.: 0
  Clinical Response: Partial Response, %: 10%
  Clinical Response: Partial Response, No.: 1
  Clinical Response: Progressive Disease, %: 0%
  Clinical Response: Progressive Disease, No.: 0
  Number of Lymph Nodes Positive: 0, %: 90%
  Number of Lymph Nodes Positive: 0, No.: 9
  Number of Lymph Nodes Positive: 1-3, %: 10%
  Number of Lymph Nodes Positive: 1-3, No.: 1
  Number of Lymph Nodes Positive: 4-9, %: 0%
  Number of Lymph Nodes Positive: 4-9, No.: 0
  Number of Lymph Nodes Positive: >9, %: 0%
  Number of Lymph Nodes Positive: >9, No.: 0
  Pathologic Response: No Response, %: 0%
  Pathologic Response: No Response, No.: 0
  Pathologic Response: Partial Reseponse, %: 10%
  Pathologic Response: Partial Reseponse, No.: 1
  Residual Disease in Breast: 1-3 cm, %: 0%
  Residual Disease in Breast: 1-3 cm, No.: 0
  Residual Disease in Breast: 4-9 cm, %: 0%
  Residual Disease in Breast: 4-9 cm, No.: 0
  Residual Disease in Breast: <1 cm, %: 0%
  Residual Disease in Breast: <1 cm, No.: 0
  Residual Disease in Breast: >9 cm, %: 0%
  Residual Disease in Breast: >9 cm, No.: 0
  Residual Disease in Breast: none, %: 100%
  Residual Disease in Breast: none, No.: 10
  grade 3 or 4 anemia: No grade 3 or 4 anemia was observed
  patients with febrile neutropenia: No patient
[2]; [9]
  Pathologic Response: Complete Pathologic Response, %: 90%
  Pathologic Response: Complete Pathologic Response, No.: 9
[2]; N = 10, stopped after two cycles
  patients who stopped due to side effects (nausea and vomiting): One patient
[2]; four cycles of cisplatin, seven patients
  complete pathologic response, patients who completed treatment: all seven
[2]; [10]
  Clinical Response: Complete Response, %: 90%
  Clinical Response: Complete Response, No.: 9
[2]; two cycles, three patients
  pathologic complete response, patients who received two cycles: two
[3]
  No response, number of patients: 0
  Response: SD, number of patients: 1
[4]; 19 patients
  No response, % of patients: 21%
  No response, number of patients: 4
  Response: CR, % of patients: 53%
  Response: CR, number of patients: 10
  Response: PR, % of patients: 16%
  Response: PR, number of patients: 3
  Response: SD, % of patients: 10%
  Response: SD, number of patients: 2
[4]; 19 patients, CR + PR + SD
  patients responsive to the therapy: 79%
[4]; Example 2 patients
  adverse effects: anemia, cases: 1 case
  adverse effects: nausea, cases: 2 cases
  adverse effects: neutropenia, cases: 6 cases
[5]
  No response, number of patients: 0
  Response: PR, number of patients: 1
[6]
  Response: CR, % of patients: 60%
  Response: CR, number of patients: 3
  Response: PR, % of patients: 20%
  Response: PR, number of patients: 1
  Response: SD, % of patients: 20%
  Response: SD, number of patients: 1
  patients with at least a partial remission: 80%
[7]
  No response, number of patients: 0
  Response: CR, number of patients: 2
[8]
  No response, number of patients: 0
  Response: CR, number of patients: 1
